In PubChem BioAssay (NCI):
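Dose response: 5 concentrations. Exposure: 48 h. Format: 96-well plates. Endpoint: linear interpolation; highest concentration if not reached. TGI is the concentration that stops growth completely.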

Key:
Assay in all cases: growth of human tumour cells (NCI), 48 h
A498 renal = tested on: A498 renal
A549 NSCLC = tested on: A549 NSCLC
ACHN renal = tested on: ACHN renal
BT-549 breast = tested on: BT-549 breast
CAKI-1 renal = tested on: CAKI-1 renal
COLO 205 colon = tested on: COLO 205 colon
DU-145 prostate = tested on: DU-145 prostate
EKVX NSCLC = tested on: EKVX NSCLC
HCT-116 colon = tested on: HCT-116 colon
HCT-15 colon = tested on: HCT-15 colon
HL-60(TB) leukemia = tested on: HL-60(TB) leukemia
HOP-62 NSCLC = tested on: HOP-62 NSCLC
HOP-92 NSCLC = tested on: HOP-92 NSCLC
HS 578T breast = tested on: HS 578T breast
HT29 colon = tested on: HT29 colon
IGROV1 ovarian = tested on: IGROV1 ovarian
K-562 leukemia = tested on: K-562 leukemia
KM12 colon = tested on: KM12 colon
LOX IMVI melanoma = tested on: LOX IMVI melanoma
M14 melanoma = tested on: M14 melanoma
MALME-3M melanoma = tested on: MALME-3M melanoma
MCF7 breast = tested on: MCF7 breast
MDA-MB-231 breast = tested on: MDA-MB-231 breast
MDA-MB-435 = tested on: MDA-MB-435
MDA-N = tested on: MDA-N
MOLT-4 leukemia = tested on: MOLT-4 leukemia
NCI-H23 lung = tested on: NCI-H23 lung
NCI-H460 lung = tested on: NCI-H460 lung
NCI-H522 lung = tested on: NCI-H522 lung
NCI/ADR-RES ovarian = tested on: NCI/ADR-RES ovarian
OVCAR-3 ovarian = tested on: OVCAR-3 ovarian
OVCAR-4 ovarian = tested on: OVCAR-4 ovarian
OVCAR-5 ovarian = tested on: OVCAR-5 ovarian
OVCAR-8 ovarian = tested on: OVCAR-8 ovarian
PC-3 prostate = tested on: PC-3 prostate
RPMI-8226 leukemia = tested on: RPMI-8226 leukemia
RXF 393 renal = tested on: RXF 393 renal
SF-268 CNS = tested on: SF-268 CNS
SF-295 CNS = tested on: SF-295 CNS
SF-539 CNS = tested on: SF-539 CNS
SK-MEL-2 melanoma = tested on: SK-MEL-2 melanoma
SK-MEL-28 melanoma = tested on: SK-MEL-28 melanoma
SK-MEL-5 melanoma = tested on: SK-MEL-5 melanoma
SK-OV-3 ovarian = tested on: SK-OV-3 ovarian
SN12C renal = tested on: SN12C renal
SNB-19 CNS = tested on: SNB-19 CNS
SNB-75 CNS = tested on: SNB-75 CNS
SR leukemia = tested on: SR leukemia
SW-620 colon = tested on: SW-620 colon
T-47D breast = tested on: T-47D breast
TK-10 renal = tested on: TK-10 renal
U251 CNS = tested on: U251 CNS
UACC-257 melanoma = tested on: UACC-257 melanoma
UACC-62 melanoma = tested on: UACC-62 melanoma
UO-31 renal = tested on: UO-31 renal
786-0 renal = tested on: 786-0 renal
CCRF-CEM leukemia = tested on: CCRF-CEM leukemia
NCI-H226 lung = tested on: NCI-H226 lung

Compound `Cn1c(-c2ccccc2)c2cc3nc4ccccc4nc3cc2c1-c1ccccc1` has a TGI (A498 renal) of 59.5 µM, a TGI (A549 NSCLC) greater than 100 µM and a TGI (ACHN renal) of 83.3 µM. For the same compound, the TGI (BT-549 breast) was 80.8 µM, the TGI (CAKI-1 renal) was greater than 100 µM and the TGI (COLO 205 colon) was 9.09 µM. The TGI (DU-145 prostate) was greater than 100 µM, the TGI (EKVX NSCLC) was greater than 100 µM and the TGI (HCT-116 colon) was greater than 100 µM. For the same compound, the TGI (HCT-15 colon) was 53.4 µM, the TGI (HL-60(TB) leukemia) was 52.6 µM and the TGI (HOP-62 NSCLC) was 35.9 µM. It also gave a TGI (HOP-92 NSCLC) of 94.2 µM, a TGI (HS 578T breast) of 45.9 µM and a TGI (HT29 colon) greater than 100 µM. The TGI (IGROV1 ovarian) was greater than 100 µM, the TGI (K-562 leukemia) was 82.6 µM and the TGI (KM12 colon) was 72.1 µM. For the same compound, the TGI (LOX IMVI melanoma) was 65 µM, the TGI (M14 melanoma) was 31.3 µM and the TGI (MALME-3M melanoma) was 78.7 µM. For the same compound, the TGI (MCF7 breast) was 47.2 µM, the TGI (MDA-MB-231 breast) was greater than 100 µM and the TGI (MDA-MB-435) was 77.4 µM. It also gave a TGI (MDA-N) of 38.9 µM, a TGI (MOLT-4 leukemia) of 64.6 µM and a TGI (NCI-H23 lung) of 44.1 µM. It also gave a TGI (NCI-H460 lung) of 25.2 µM, a TGI (NCI-H522 lung) of 40.3 µM and a TGI (NCI/ADR-RES ovarian) greater than 100 µM. The TGI (OVCAR-3 ovarian) was greater than 100 µM, the TGI (OVCAR-4 ovarian) was greater than 100 µM and the TGI (OVCAR-5 ovarian) was greater than 100 µM. For the same compound, the TGI (OVCAR-8 ovarian) was greater than 100 µM, the TGI (PC-3 prostate) was 70.4 µM and the TGI (RPMI-8226 leukemia) was 30.1 µM. The TGI (RXF 393 renal) was 54.4 µM, the TGI (SF-268 CNS) was 86.9 µM and the TGI (SF-295 CNS) was 89.8 µM. It also gave a TGI (SF-539 CNS) of 41.2 µM, a TGI (SK-MEL-2 melanoma) of 60.3 µM and a TGI (SK-MEL-28 melanoma) greater than 100 µM. The TGI (SK-MEL-5 melanoma) was 9.71 µM, the TGI (SK-OV-3 ovarian) was 64.9 µM and the TGI (SN12C renal) was 51.3 µM. It also gave a TGI (SNB-19 CNS) greater than 100 µM, a TGI (SNB-75 CNS) greater than 100 µM and a TGI (SR leukemia) of 24.2 µM. For the same compound, the TGI (SW-620 colon) was 92.5 µM, the TGI (T-47D breast) was greater than 100 µM and the TGI (TK-10 renal) was greater than 100 µM. It also gave a TGI (U251 CNS) greater than 100 µM, a TGI (UACC-257 melanoma) greater than 100 µM and a TGI (UACC-62 melanoma) of 30.2 µM. It also gave a TGI (UO-31 renal) greater than 100 µM.
With `COC1CC(C)(NC(C)=O)C2OC(c3ccccc3)OCC2O1` (configuration not stated) the TGI (786-0 renal) was greater than 100 µM, the TGI (A498 renal) was greater than 100 µM and the TGI (A549 NSCLC) was greater than 100 µM. The TGI (ACHN renal) was greater than 100 µM, the TGI (BT-549 breast) was greater than 100 µM and the TGI (CAKI-1 renal) was greater than 100 µM. For the same compound, the TGI (CCRF-CEM leukemia) was greater than 100 µM, the TGI (COLO 205 colon) was greater than 100 µM and the TGI (DU-145 prostate) was greater than 100 µM. For the same compound, the TGI (EKVX NSCLC) was greater than 100 µM, the TGI (HCT-116 colon) was greater than 100 µM and the TGI (HCT-15 colon) was greater than 100 µM. The TGI (HL-60(TB) leukemia) was greater than 100 µM, the TGI (HOP-62 NSCLC) was greater than 100 µM and the TGI (HOP-92 NSCLC) was greater than 100 µM. For the same compound, the TGI (HS 578T breast) was greater than 100 µM, the TGI (HT29 colon) was greater than 100 µM and the TGI (IGROV1 ovarian) was greater than 100 µM. The TGI (K-562 leukemia) was greater than 100 µM, the TGI (KM12 colon) was greater than 100 µM and the TGI (LOX IMVI melanoma) was greater than 100 µM. For the same compound, the TGI (M14 melanoma) was greater than 100 µM, the TGI (MALME-3M melanoma) was greater than 100 µM and the TGI (MCF7 breast) was greater than 100 µM. The TGI (MDA-MB-231 breast) was greater than 100 µM, the TGI (MDA-MB-435) was greater than 100 µM and the TGI (MDA-N) was greater than 100 µM. It also gave a TGI (MOLT-4 leukemia) greater than 100 µM, a TGI (NCI-H226 lung) greater than 100 µM and a TGI (NCI-H23 lung) greater than 100 µM. For the same compound, the TGI (NCI-H460 lung) was greater than 100 µM, the TGI (NCI-H522 lung) was greater than 100 µM and the TGI (NCI/ADR-RES ovarian) was greater than 100 µM. It also gave a TGI (OVCAR-3 ovarian) greater than 100 µM, a TGI (OVCAR-4 ovarian) greater than 100 µM and a TGI (OVCAR-5 ovarian) greater than 100 µM. For the same compound, the TGI (OVCAR-8 ovarian) was greater than 100 µM, the TGI (PC-3 prostate) was greater than 100 µM and the TGI (RPMI-8226 leukemia) was greater than 100 µM. It also gave a TGI (RXF 393 renal) greater than 100 µM, a TGI (SF-268 CNS) greater than 100 µM and a TGI (SF-295 CNS) greater than 100 µM. The TGI (SF-539 CNS) was greater than 100 µM, the TGI (SK-MEL-28 melanoma) was greater than 100 µM and the TGI (SK-MEL-5 melanoma) was greater than 100 µM. The TGI (SK-OV-3 ovarian) was greater than 100 µM, the TGI (SN12C renal) was greater than 100 µM and the TGI (SNB-19 CNS) was greater than 100 µM. It also gave a TGI (SNB-75 CNS) greater than 100 µM, a TGI (SR leukemia) greater than 100 µM and a TGI (SW-620 colon) greater than 100 µM. The TGI (T-47D breast) was greater than 100 µM, the TGI (TK-10 renal) was greater than 100 µM and the TGI (U251 CNS) was greater than 100 µM. The TGI (UACC-257 melanoma) was greater than 100 µM, the TGI (UACC-62 melanoma) was greater than 100 µM and the TGI (UO-31 renal) was greater than 100 µM.
